Experimental data from US8518911B2, “Pyrazolo[1,5-a]pyridines as MARK inhibitors” (Merck Sharp & Dohme Corp., priority 2008, dated 2013).

Target: T1, recombinant MARK3 enzyme (Homo sapiens, UniProt P27448)
T1 construct: purchased University of Dundee
Assay: MARK 3 Assay (HTRF, Cdc25C biotinylated peptide substrate)
Format: biochemical
Details: MARK3, 10 μM ATP, 1 μM peptide substrate, 2 hours at 25° C.
Description: MARK3 activity was assayed in vitro using a Cdc25C biotinylated peptide substrate (Cell Signalling Technologies). The phosphopeptide product was quantitated using a Homogenous Time-Resolved Fluorescence (HTRF) assay system (Park et al., 1999, Anal. Biochem. 269:94-104). The reaction mixture contained 50 mM HEPES/Tris-HCl, pH 7.4; […], 5 mM MgCl2, 0.2 mM NaVO4, 5 mM β-glycerol phosphate, 0.1% Tween-20, 2 mM dithiothreitol, 0.1% BSA, 10 μM ATP, 1 μM peptide substrate, and 10 nM recombinant MARK3 enzyme (University of Dundee) in a final volume of 12 μL. The buffer additionally contained protease inhibitor cocktail (Roche EDTA-free, 1 tab per 50 ml). The kinase reaction was incubated for 2 hours at 25° C., and then terminated with 3 μl Stop/Detection Buffer (50 mM HEPES, pH 7.0, 16.6 mM EDTA, 0.5M KF, 0.1% Tween-20, 0.1% BSA, 2 μg/ml SLX^ent 665 (CISBIO), and 2 μg/mL Eu^3+ cryptate label antibody (CISBIO)). The reaction was allowed to equilibrate overnight at 0° C., and relative fluorescent units were read on an HTRF enabled plate reader (e.g. TECAN GENios Pro).
Inhibitor compounds were assayed in the reaction described above to determine compound IC50s. Aliquots of compound dissolved in DMSO were added to the reaction wells in a third-log dilution series covering a range of 1 nM to 10 μM. Relative phospho substrate formation, read as HTRF fluorescence units, was measured over the range of compound concentrations and a titration curve generated.

T1 sequence (P27448 whole entry, species assumed): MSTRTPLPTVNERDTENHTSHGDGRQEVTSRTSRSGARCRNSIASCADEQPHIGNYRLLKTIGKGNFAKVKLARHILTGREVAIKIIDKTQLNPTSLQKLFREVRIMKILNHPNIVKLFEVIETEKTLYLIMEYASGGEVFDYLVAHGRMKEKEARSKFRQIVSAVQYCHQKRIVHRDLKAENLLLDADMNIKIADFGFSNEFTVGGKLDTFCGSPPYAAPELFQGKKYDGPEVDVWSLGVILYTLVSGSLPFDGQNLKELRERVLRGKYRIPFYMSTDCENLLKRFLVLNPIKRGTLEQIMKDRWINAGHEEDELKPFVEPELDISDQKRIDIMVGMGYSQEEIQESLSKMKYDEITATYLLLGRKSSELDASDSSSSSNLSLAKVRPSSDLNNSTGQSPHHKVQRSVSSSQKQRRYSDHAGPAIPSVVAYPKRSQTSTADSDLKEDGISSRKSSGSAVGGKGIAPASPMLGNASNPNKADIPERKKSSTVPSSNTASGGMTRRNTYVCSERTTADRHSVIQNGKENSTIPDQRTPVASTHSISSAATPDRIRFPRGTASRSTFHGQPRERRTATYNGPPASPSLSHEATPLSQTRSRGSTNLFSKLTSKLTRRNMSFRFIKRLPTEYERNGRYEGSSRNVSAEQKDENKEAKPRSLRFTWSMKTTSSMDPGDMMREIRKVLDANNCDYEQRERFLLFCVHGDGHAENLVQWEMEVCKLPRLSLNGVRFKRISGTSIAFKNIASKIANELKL

Row | IC50 [nM] | SMILES
1 | 13 | Cc1sc(C(=O)NC(CN)c2ccccc2)nc1-c1cnn2cc(-c3cnn(C)c3)ccc12 (stereo not drawn) [Example 182, N-(2-Amino-1-phenylethyl)-5-methyl-4-[6-(1-methyl-1H-pyrazol-4-yl)pyrazolo[1,5-a]pyridin-3-yl]-1,3-thiazole-2-carboxamide]
2 | 4 | N[C@H]1CCCC(F)(F)[C@@H]1NC(=O)c1nc(-c2cnn3ccccc23)c(Cl)s1 [Example 7, N-[(1R,6S)-6-Amino-2,2-difluorocyclohexyl]-5-chloro-4-pyrazolo[1,5-a]pyridin-3-yl-1,3-thiazole-2-carboxamide]
3 | 19 | N[C@@H]1CCCC(F)(F)[C@@H]1NC(=O)c1cc(-c2cnn3ccccc23)c(Cl)s1 [Example 206, N-[(1R,6R)-6-amino-2,2-difluorocyclohexyl]-5-chloro-4-pyrazolo[1,5-a]pyridin-3-yl-2-thiophenecarboxamide]
4 | 29 | CCc1sc(C(=O)N[C@@H]2[C@@H](N)CCCC2(F)F)cc1-c1cnn2cc(F)ccc12 [Example 170, N-[(1R,6S)-6-Amino-2,2-difluorocyclohexyl]-5-ethyl-4-(6-fluoropyrazolo[1,5-a]pyridin-3-yl)thiophene-2-carboxamide]
5 | 21 | N[C@@H]1CCCC(F)(F)[C@@H]1NC(=O)c1nc(-c2cnn3cc(-c4ccc(F)cc4)ccc23)c(Cl)s1 [Example 1]
6 | 0.5 | C=C(C)c1ccc2c(-c3csc(C(=O)N[C@@H]4[C@@H](N)CCCC4(F)F)n3)cnn2c1 [Example 157, N-[(1R,6S)-6-Amino-2,2-difluorocyclohexyl]-4-(6-isopropenylpyrazolo[1,5-a]pyridin-3-yl)-1,3-thiazole-2-carboxamide]
